Results from ChEMBL document CHEMBL1157528, “Mixed tetraoxanes containing the acetone subunit as antimalarials” (Bioorg Med Chem, 2008).
Calls of active or inactive are those of the source. No cut-off for these calls is given here.

Assays:
Plasmodium falciparum [1] = assay: microbe, parasite or virus in culture; conditions: D6
Description: Antimalarial activity against chloroquine and pyrimethamine-sensitive Plasmodium falciparum D6

Plasmodium berghei [2] = assay: Antimalarial activity as survival time in Plasmodium berghei KBG173 infected CD1 mice (Mus musculus) at 20 mg/kg/day peroral dose; format: functional; conditions: route oral
Plasmodium berghei [3] = assay: Antimalarial activity as parasite-free survivors at day 31 of Plasmodium berghei KBG173 infected CD1 mice (Mus musculus) at 320 mg/kg/day peroral dose; format: functional, organism-based
Plasmodium berghei [4] = assay: Antimalarial activity as survival time against Plasmodium berghei KBG173 infected CD1 mice (Mus musculus) at 80 mg/kg/day peroral dose 3 - 5 days post infection; format: functional; conditions: route oral
Plasmodium berghei [5] = assay: Antimalarial activity as parasite-free survivors at day 31 of Plasmodium berghei KBG173 infected CD1 mice (Mus musculus) at 20 mg/kg/day peroral dose; format: functional, organism-based
Plasmodium falciparum [6] = assay: microbe, parasite or virus in culture; conditions: TM91C235
Description: Antimalarial activity against mefloquine, chloroquine and quinine-resistant Plasmodium falciparum TM91C235

Plasmodium berghei [7] = assay: Antimalarial activity as survival time in Plasmodium berghei KBG173 infected CD1 mice (Mus musculus) at 320 mg/kg/day peroral dose; format: functional; conditions: route oral
Plasmodium falciparum [8] = assay: microbe, parasite or virus in culture; conditions: W2
Description: Antimalarial activity against chloroquine and pyrimethamine-resistant Plasmodium falciparum W2

Plasmodium falciparum [9] = assay: microbe, parasite or virus in culture; conditions: RCS
Description: Antimalarial activity against chloroquine-resistant, mefloquine-sensitive Plasmodium falciparum RCS

[10] = Metabolic stability in mouse liver microsomes assessed as half life at 10 uM; format: ADME, Microsome
[11] = Metabolic stability in human liver microsomes assessed as half life at 10 uM; format: ADME, Microsome
[12] = Cytotoxicity against human NCI60 cells; format: functional

| SMILES | IC50 (Plasmodium falciparum [1]) [nM] | IC90 (Plasmodium falciparum [1]) [nM] | Survival (Plasmodium berghei [2]) [days] | Activity (Plasmodium berghei [3]) | Survival (Plasmodium berghei [4]) [days] | Activity (Plasmodium berghei [5]) | IC50 (Plasmodium falciparum [6]) [nM] | IC90 (Plasmodium falciparum [6]) [nM] | Survival (Plasmodium berghei [7]) [days] | IC50 (Plasmodium falciparum [8]) [nM] | IC90 (Plasmodium falciparum [8]) [nM] | IC50 (Plasmodium falciparum [9]) [nM] | IC90 (Plasmodium falciparum [9]) [nM] | half-life at 10 µM [10] [min] | half-life at 10 µM [11] [min] | GI50 [12] [nM] | LC50 [12] [nM] | TGI [12] [nM] |
| --- | --- | --- | --- | --- | --- | --- | --- | --- | --- | --- | --- | --- | --- | --- | --- | --- | --- | --- |
| COC(=O)CC[C@@H](C)[C@H]1CC[C@H]2[C@@H]3[C@H](OC(C)=O)C[C@@H]4CC5(CC[C@]4(C)[C@H]3C[C@H](OC(C)=O)[C@]12C)OOC(C)(C)OO5 | 15 | 26.7 | 13 | inactive | 16 | inactive | 26 | 57.3 | 18 | 11.7 | 20.7 |  |  |  |  |  |  |  |
| CC(=O)O[C@H]1C[C@H]2[C@@H]([C@H](OC(C)=O)C[C@@H]3CC4(CC[C@@]32C)OOC(C)(C)OO4)[C@@H]2CC[C@H]([C@H](C)CCC(=O)NN)[C@@]12C | 28.1 | 46.3 |  |  |  |  | 28.5 | 38.1 |  | 16.4 | 22.9 | 7.03 | 19.5 |  |  |  |  |  |
| CCCNC(=O)CC[C@@H](C)[C@H]1CC[C@H]2[C@@H]3[C@H](OC(C)=O)C[C@@H]4CC5(CC[C@]4(C)[C@H]3C[C@H](OC(C)=O)[C@]12C)OOC(C)(C)OO5 | 7.4 | 16.2 |  |  |  |  |  |  |  | 18.1 | 29.2 |  |  | 25 | 24 |  |  |  |
| CNC(=O)CC[C@@H](C)[C@H]1CC[C@H]2[C@@H]3[C@H](OC(C)=O)C[C@@H]4CC5(CC[C@]4(C)[C@H]3C[C@H](OC(C)=O)[C@]12C)OOC(C)(C)OO5 | 46.9 | 78.3 |  |  |  |  | 31.3 | 74.8 |  | 18.1 | 20.7 | 11.6 | 22.3 | > 60 | > 60 | 4470 | 47900 | 18200 |
